Usually IC50 stands for the concentration at which inhibition is half-maximal. Read a high IC50 as a need for much substance.

What all share (assay type): functional, cell-based
One experiment relates to A549. Briefly: Cytotoxicity against human A549 cells by MTT assay. (In general: Tetrazolium assays rely on reduction of a dye to a coloured formazan, in cell work by metabolically active cells.)
A further experiment has as its system THP-1. Briefly: Cytotoxicity against human THP1 cells by MTT assay.
The subject of another experiment is HL-60. Briefly: Cytotoxicity against human HL60 cells by MTT assay.
For a further experiment, the system named is A-375. Briefly: Cytotoxicity against human A375 cells by MTT assay.

On to `COc1cc([C@@H]2c3cc4c(cc3[C@@H](O[C@@H]3O[C@@H]5CO[C@@H](C)O[C@H]5[C@H](O)[C@H]3O)[C@H]3COC(=O)[C@H]23)OCO4)cc(OC)c1O` [ETOPOSIDE], for which the IC50 came out at 9.51 µM in the experiment on A549, 2.16 µM in the experiment on THP-1, 1.83 µM in the experiment on HL-60 and 3.92 µM with A-375.

`CC1=CC(=O)[C@]23O[C@](C)(C=C2C1=O)CC[C@H]1[C@@H](C[C@H]3C)C1(C)C` [MULTIFIDONE]: the IC50 in the experiment with A549 was found to be 127 µM; in the experiment on THP-1, 45.6 µM; with HL-60, 121 µM; in the experiment with A-375, 159 µM.

The values above are taken from ChEMBL document CHEMBL1139301, “Multifidone: a novel cytotoxic lathyrane-type diterpene having an unusual six-membered A ring from Jatropha multifida” (Bioorg Med Chem Lett, 2009).
